These results are taken from PMC10907374, “G2019S selective LRRK2 kinase inhibitor abrogates mitochondrial DNA damage” (NPJ Parkinson's Disease, 2024).

Entries after “also recorded” stand apart in the source; their conditions may differ.

The subject of experiment [1] is G2019S-LRRK2 expressing HEK293 cells. Kind of experiment: Mito DNADX mtDNA damage and mtDNA copy number in G2019S-LRRK2 overexpressing HEK293 cells. The format is cell-based, human. As to conditions: 10 nM-1 μM, 2 h. The protocol:
(§1) Cells were plated at a density of 0.3 × 10^6 cells in a 6-well dish and treated at ~40–50% confluency. At the time of harvest, cells were collected and either protein collected or DNA extracted as described below.
(§2) The tool compound EB-42168 was discovered as part of a small molecule discovery program aimed at identifying LRRK2 kinase inhibitors that are selective for the pathogenic G2019S LRRK2 variant. […] MLi‐2 inhibits WT LRRK2 ~1000‐fold more than EB‐42168[20].
(§3) Cells were collected and the nuclei and mitochondria were isolated as previously described. DNA was extracted from LRRK2-WT and G2019S-LRRK2 cells, and wild-type and LRRK2^G2019S/G2019S KI cells using QuickGene DNA Whole Blood Kit L (Autogen, fk-dbl). PD patient LRRK2 G2019S and healthy subject control-derived LCL DNA was extracted using the QuickGene DNA Tissue Kit L (Autogen, fk-dtl), utilizing a semi-automated system (Autogen, QuickGene-610L). For the Autogen system, the pellet was resuspended in 2 ml of 1X PBS, and the standard manufacturer’s protocol was conducted as if the cell suspension was whole blood. DNA was eluted with EDTA-free buffer, and quality was assessed using a Spectradrop microvolume microplate (Molecular Devices). Double-stranded DNA was quantified using Quant-iT Picogreen dsDNA assay (Thermo Fisher) as previously described.
(§4) DNA damage in the mitochondrial genome was measured utilizing Mito DNADX, an assay that we recently developed and described, currently the most robust way of measuring damage in mtDNA[39],[82]. The Mito DNADX assay combines optimized polymerase chain reaction (PCR) parameters using a high-fidelity DNA polymerase and a fluorescent dye that binds to double-stranded DNA that permits the real-time quantification of DNA damage in distinct loci in a 96-well platform. The premise of the Mito DNADX assay involves amplification of a specific mitochondrial PCR fragment in which less PCR product will be amplified when mtDNA damage or lesions block the ability of the DNA polymerase to replicate. As such, mtDNA damage or mtDNA repair intermediates that slow down or impair DNA polymerase progression will be detected. Therefore, equal amounts of sample DNA amplified under identical conditions can be directly compared across conditions to determine the mtDNA lesion frequency. Mitochondrial DNA lesion frequency was performed as previously described. Briefly, 15 ng of DNA was used to amplify long or short amplicons of the mitochondrial genome (as determined by primer sets). The amount of amplification is directly proportional to the number of undamaged DNA templates. Average lesion frequency is calculated as described. Results are presented with the values in experimental samples relative to control samples (normalized to 1 lesion per 10 kb). PCR reactions included KAPA Long Range HotStart DNA Polymerase (KAPA Biosystems)[49]. Each biological DNA sample was analyzed in technical triplicate. Limitations of the Mito DNADX assay have been recently discussed.

Another experiment relates to wild-type HEK293 cells. Kind of experiment: Mito DNADX mtDNA damage and mtDNA copy number in wild-type HEK293 cells. As to conditions: 10 nM-1 μM, 2 h. The experiment is classed as cell-based, human. How it is done: as §1
Following this treatment, “Post-treatment recovery 0 h” samples were collected immediately, or vehicle or MLi-2-containing treatment medium was washed out and replaced with fresh medium and incubated for 2 additional hours and then collected as “Post-treatment recovery 2 h” samples. Isolation, quantitation, and mtDNA damage was performed as described below. […]
Cells were collected and the nuclei and mitochondria were isolated as previously described. […] DNA was eluted with EDTA-free buffer, and quality was assessed using a Spectradrop microvolume microplate (Molecular Devices). Double-stranded DNA was quantified using Quant-iT Picogreen dsDNA assay (Thermo Fisher) as previously described.
DNA damage in the mitochondrial genome was measured utilizing Mito DNADX, an assay that we recently developed and described, currently the most robust way of measuring damage in mtDNA[39],[82]. The Mito DNADX assay combines optimized polymerase chain reaction (PCR) parameters using a high-fidelity DNA polymerase and a fluorescent dye that binds to double-stranded DNA that permits the real-time quantification of DNA damage in distinct loci in a 96-well platform. […]

In experiment [2] the test system is LRRK2^G2019S/G2019S KI HEK293 cells. Kind of experiment: Mito DNADX mtDNA damage and mtDNA copy number in LRRK2 G2019S/G2019S KI HEK293 cells. As to conditions: for mtDNA copy number / mtDNA damage: LRRK2 G2019S/G2019S KI cells, 2 h; for mtDNA copy number: 10 nM-1 μM. The format is cell-based, human. The protocol:
as §1
Following this treatment, “Post-treatment recovery 0 h” samples were collected immediately, or vehicle or MLi-2-containing treatment medium was washed out and replaced with fresh medium and incubated for 2 additional hours and then collected as “Post-treatment recovery 2 h” samples. Isolation, quantitation, and mtDNA damage was performed as described below.
as §2, §3, §4

In another experiment the test system is healthy control LCLs. Kind of experiment: Mito DNADX mtDNA damage and mtDNA copy number in healthy control-derived LCLs. The experiment is classed as cell-based, human. As to conditions: 10 and 100 nM, 2 h. How it is done:
PD patient G2019S LRRK2 (n = 2) and healthy subject control (n = 2)-derived LCLs were obtained from the NINDS Coriell biorepository (ID numbers are ND00011, ND00264, ND01618, ND02559). There was not a statistical difference in the ages between the PD patient and healthy control subjects (p = 0.92). LCLs were cultured at 37 °C, 5% CO2, in RPMI-1640 (Sigma-Aldrich, R8758), 15% heat-inactivated fetal bovine serum (VWR Seradigm, 97068-091) and 0.5% Penicillin/Streptomycin (Corning, 30-002-CI). […] All in vitro experiments were repeated at least three times from distinct samples.
as §2, §3
DNA damage in the mitochondrial genome was measured utilizing Mito DNADX, an assay that we recently developed and described, currently the most robust way of measuring damage in mtDNA[39],[82]. The Mito DNADX assay combines optimized polymerase chain reaction (PCR) parameters using a high-fidelity DNA polymerase and a fluorescent dye that binds to double-stranded DNA that permits the real-time quantification of DNA damage in distinct loci in a 96-well platform. The premise of the Mito DNADX assay involves amplification of a specific mitochondrial PCR fragment in which less PCR product will be amplified when mtDNA damage or lesions block the ability of the DNA polymerase to replicate. As such, mtDNA damage or mtDNA repair intermediates that slow down or impair DNA polymerase progression will be detected. […] Briefly, 15 ng of DNA was used to amplify long or short amplicons of the mitochondrial genome (as determined by primer sets). […] Average lesion frequency is calculated as described. […] Each biological DNA sample was analyzed in technical triplicate. […]

The next experiment deals with G2019S LRRK2. The note with it: cited from earlier work.

As for `CC1=C(C(=O)Nc2ccc3[nH]nc(-c4ccnc(N5CCOCC5)c4)c3c2)C(C)(C)n2nnnc2N1C` [EB-42168], the mtDNA copy number entry in experiment [1] was “not different; also recorded: did not change”; in the experiment on wild-type HEK293 cells, “no effect”; in experiment [2], “reduced”; in experiment [2] (listed as EB-42618) it was “modestly decreased”; with healthy control LCLs, “No differences”. For the same compound, the mtDNA damage entry is listed as “normalizing damage to WT-LRRK2 control levels (or lower)” in experiment [1], “abrogated” in experiment [1] (listed as EB-42618), “reversed to wild-type levels” in experiment [2] (all concentrations tested (10 nM-1 μM)) and “without an effect” with healthy control LCLs. In the experiment on G2019S LRRK2, the “fold more potent inhibition of G2019S LRRK2 than wild-type LRRK2” value is 100 fold.
With `C[C@@H]1CN(c2cc(-c3n[nH]c4ccc(OC5(C)CC5)cc34)ncn2)C[C@H](C)O1` [MLi-2, reference compound], the mtDNA copy number result is “no effect; also recorded: unaltered” in experiment [1], “did not change” with wild-type HEK293 cells, “did not change; also recorded: No effect; also recorded: No changes” in experiment [2] and “No differences” in the experiment on healthy control LCLs. Moreover, the mtDNA damage entry is listed as “restored mtDNA damage to WT-LRRK2 control levels” in experiment [1], “reversed mtDNA damage levels to wild-type levels” in experiment [2] (100 nM) and “no effect” in the experiment on healthy control LCLs. In addition, in experiment [2] (100 nM for 2 h, washout, 2 h recovery), the “mtDNA copy number after inhibitor washout” value is “no changes”. The “mtDNA damage phenotype after inhibitor washout” value in experiment [2] (KI cells, 100 nM for 2 h, washout, 2 h recovery in media) was “fully re-established”. Also, in experiment [2] (KI cells, 100 nM for 2 h then washout), the “time to re-establishment of mtDNA damage phenotype after washout” value was not above 2 h. Further, the “potency in recombinant cell lines expressing WT-LRRK2 or G2019S-LRRK2” value in the experiment on G2019S LRRK2 is reported as “equipotent”.
